Tests used:
[1] = AUC(0 to 24 hrs) in Sprague-Dawley rat at 100 mg/kg; assay type: ADME, organism-based; set-up: dose 100 mg/kg; details: in vivo
[2] = target: CYP2D6 (Homo sapiens, UniProt P10635); assay: Inhibition of CYP2D6 in human liver microsomes at 1 uM preincubated for 5 mins followed by NADPH addition by LC-MS/MS analysis relative to control; assay type: ADME, Microsome
[3] = Ratio of drug concentration in blood to plasma in rat; assay type: ADME, cell-free
[4] = Cmax in Beagle dog at 5 mg/kg, po measured upto 24 hrs by LC/MS-MS analysis; assay type: ADME, organism-based, Canis lupus familiaris; set-up: dose 5 mg/kg, time < 24 hrs, route po; details: in vivo
[5] = target: T1, Extracellular calcium-sensing receptor (Homo sapiens, UniProt P41180); assay: Agonist activity at human CaSR expresssed in HEK293 cells in presence of glucose by Fluo4NW dye based FLIPR assay; assay type: functional, cell-based; details: read-out: EC50
T1 sequence (P41180 whole entry): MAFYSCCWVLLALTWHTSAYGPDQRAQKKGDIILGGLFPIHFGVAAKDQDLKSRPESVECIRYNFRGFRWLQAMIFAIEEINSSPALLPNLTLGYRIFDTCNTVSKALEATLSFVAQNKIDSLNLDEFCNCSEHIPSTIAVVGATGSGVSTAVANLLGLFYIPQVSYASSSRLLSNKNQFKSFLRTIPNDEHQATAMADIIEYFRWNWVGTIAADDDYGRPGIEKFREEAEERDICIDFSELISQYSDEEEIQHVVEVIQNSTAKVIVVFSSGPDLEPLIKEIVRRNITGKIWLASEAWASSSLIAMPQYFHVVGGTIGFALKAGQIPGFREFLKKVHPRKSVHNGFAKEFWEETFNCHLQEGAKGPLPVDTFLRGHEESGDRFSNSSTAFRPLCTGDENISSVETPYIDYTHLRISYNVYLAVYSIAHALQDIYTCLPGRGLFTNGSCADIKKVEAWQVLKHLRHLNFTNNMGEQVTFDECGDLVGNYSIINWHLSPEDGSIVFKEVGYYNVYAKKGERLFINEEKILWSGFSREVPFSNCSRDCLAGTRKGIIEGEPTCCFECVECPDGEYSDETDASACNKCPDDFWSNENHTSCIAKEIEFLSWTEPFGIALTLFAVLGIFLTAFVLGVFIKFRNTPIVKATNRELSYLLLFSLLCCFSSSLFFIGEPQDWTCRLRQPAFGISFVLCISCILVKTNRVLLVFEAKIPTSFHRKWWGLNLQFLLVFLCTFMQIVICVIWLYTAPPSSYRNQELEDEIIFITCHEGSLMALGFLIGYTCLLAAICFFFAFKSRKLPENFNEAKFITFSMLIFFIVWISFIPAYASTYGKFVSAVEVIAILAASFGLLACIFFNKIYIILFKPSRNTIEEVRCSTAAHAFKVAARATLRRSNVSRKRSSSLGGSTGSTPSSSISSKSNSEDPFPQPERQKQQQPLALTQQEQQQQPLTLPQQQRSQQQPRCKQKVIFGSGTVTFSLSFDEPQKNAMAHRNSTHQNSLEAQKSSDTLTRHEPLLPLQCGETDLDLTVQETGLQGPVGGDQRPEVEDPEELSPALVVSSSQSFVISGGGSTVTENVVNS

[6] = Cmax in Sprague-Dawley rat at 100 mg/kg; assay type: ADME, organism-based; set-up: dose 100 mg/kg; details: in vivo
[7] = Cmax in BALB/c mouse at 10 mg/kg, po measured upto 24 hrs by LC/MS-MS analysis; assay type: ADME, organism-based; set-up: dose 10 mg/kg, time < 24 hrs, route po; details: in vivo
[8] = Half life in BALB/c mouse at 1 mg/kg, iv measured upto 24 hrs by LC/MS-MS analysis; assay type: ADME, organism-based; details: in vivo
[9] = Kinetic solubility of compound upto 500 uM at pH 2 measured after 16 hrs under shaking condition by UV-visible method; assay type: physicochemical; details: buffer, read-out: Kinetic_solubility
[10] = Metabolic stability in dog liver cytosol measured upto 60 mins by LC-MS/MS method; assay type: ADME, subcellular, Canis lupus familiaris; details: read-out: Stability
[11] = Chemical stability of the compound at pH 4 measured after 0.5 to 4 hrs; assay type: physicochemical; details: buffer, time 0.5-4 hrs
[12] = Effect on parathyroid hormone in overnight fasted Sprague-Dawley rat assessed as reduction in plasma PTH level at 3 mg/kg, po measured after 2 hrs of post treatment by sandwich ELISA analysis; assay type: functional; set-up: scale not given: the % may be the effect or the level left
[13] = system: Rattus norvegicus; assay: Chronic effect on parathyroid hormone in overnight fasted adenine diet-induced chronic kidney disease Wistar rat model plasma assessed as reduction in plasma PTH level at 1 mg/kg, po qd measured after 27 days of post treatment by sandwich ELISA analysis; assay type: functional; set-up: scale not given: the % may be the effect or the level left; details: time 27 day
[14] = Volume of distribution at steady state in Sprague-Dawley rat at 1 mg/kg, iv measured upto 24 hrs by LC-MS/MS analysis; assay type: ADME, organism-based; details: in vivo, read-out: Vdss
[15] = Effect on parathyroid hormone in overnight fasted adenine diet-induced chronic kidney disease Wistar rat model plasma assessed as reduction in PTH level at 1 mg/kg, po measured after 1 hrs of post treatment by sandwich ELISA analysis; assay type: functional; set-up: scale not given: the % may be the effect or the level left
[16] = Cmax in Sprague-Dawley rat at 10 mg/kg, po administered as solution measured upto 24 hrs by LC-MS/MS analysis; assay type: ADME, organism-based; set-up: dose 10 mg/kg, time < 24 hrs, route po; details: in vivo
[17] = system: Rattus norvegicus; assay: Subchronic effect on parathyroid hormone in overnight fasted adenine diet-induced chronic kidney disease Wistar rat model plasma assessed as reduction in plasma PTH level at 1 mg/kg, po qd measured after 27 days of post treatment by sandwich ELISA analysis; assay type: functional; set-up: scale not given: the % may be the effect or the level left; details: time 27 day
[18] = Effect on parathyroid hormone in overnight fasted Sprague-Dawley rat assessed as reduction in plasma PTH level at 3 mg/kg, po measured after 6 hrs of post treatment by sandwich ELISA analysis; assay type: functional; set-up: scale not given: the % may be the effect or the level left
[19] = Cmax in rat at 50 mg/kg per day, po via gavage administered for 2 weeks; assay type: ADME, organism-based; set-up: dose 50 mg/kg, time 2 weeks, route po; details: in vivo
[20] = Protein binding in human plasma incubated for 16 hrs under shaking condition by rapid equilibrium dialysis based LC-MS/MS method; assay type: ADME, cell-free; details: read-out: PPB
[21] = Toxicity in rat assessed as NOAEL; details: in vivo
[22] = Plasma clearance in cynomolgus monkey at 1 mg/kg, iv measured upto 24 hrs by LC/MS-MS analysis; assay type: ADME, organism-based, Macaca fascicularis
[23] = Effect on parathyroid hormone in overnight fasted Sprague-Dawley rat assessed as reduction in plasma PTH level at 10 mg/kg, po measured after 6 hrs of post treatment by sandwich ELISA analysis (reference value: 33%); assay type: functional; set-up: scale not given: the % may be the effect or the level left
[24] = Oral bioavailability in cynomolgus monkey at 5 mg/kg measured upto 24 hrs by LC/MS-MS analysis; assay type: ADME, organism-based, Macaca fascicularis; details: in vivo

CYP2D6, sequence (P10635 whole entry): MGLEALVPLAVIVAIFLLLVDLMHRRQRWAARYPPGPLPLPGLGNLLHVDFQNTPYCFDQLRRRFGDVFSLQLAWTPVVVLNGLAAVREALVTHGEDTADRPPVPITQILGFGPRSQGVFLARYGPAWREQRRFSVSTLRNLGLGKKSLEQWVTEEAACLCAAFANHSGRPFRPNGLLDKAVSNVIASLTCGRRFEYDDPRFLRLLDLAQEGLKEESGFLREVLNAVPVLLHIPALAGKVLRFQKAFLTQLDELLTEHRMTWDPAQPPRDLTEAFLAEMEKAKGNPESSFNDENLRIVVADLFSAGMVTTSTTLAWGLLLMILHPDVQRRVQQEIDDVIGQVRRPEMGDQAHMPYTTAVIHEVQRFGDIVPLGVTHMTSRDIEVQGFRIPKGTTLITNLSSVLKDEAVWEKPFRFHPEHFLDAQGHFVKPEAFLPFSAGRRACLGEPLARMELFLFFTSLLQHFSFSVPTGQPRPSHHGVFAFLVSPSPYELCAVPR

Structure (SMILES): Cc1ccc([C@@H]2C[C@H](CN[C@H](C)c3cccc4ccccc34)Oc3ccccc32)cc1C(=O)O.Cl
- AUC(0-t) [1]: 426 µM·h
- inhibition at 1 µM [2]: 4%
- blood plasma ratio [3]: 0.64
- Cmax [4]: 11 µM
- EC50 [5]: 6.4 nM
- Cmax [6]: 53 µM
- Cmax [7]: 31 µM
- half-life [8]: 3 h
- solubility kinetic at 16 h, 500 µM [9]: > 300 µM
- remaining at 1 h [10]: > 80%
- Stability [11]: Stable
- Activity [12]: 100%
- Activity [13]: 65%
- Vd [14]: 1 L/kg
- Activity [15]: 95%
- Cmax [16]: 14 µM
- Activity [17]: 83%
- Activity [18]: 18%
- Cmax [19]: 7170 ng/mL
- fraction unbound at 16 h [20]: < 0.01
- NOAEL [21]: 25 mg/kg/day
- clearance [22]: 151 mL/min/kg
- Activity [23]: 45%
- bioavailability [24]: 100%

From ChEMBL document CHEMBL5346964, “Discovery of LNP1892: A Precision Calcimimetic for the Treatment of Secondary Hyperparathyroidism” (J Med Chem, 2023)
